# Measured values from US9676714B2, “Sulfonylindole derivatives and method for preparing the same” (Daewoong Pharmaceutical Co., Ltd., priority 2013, dated 2017).
# Counter-ions that a name gives are not always drawn.
# Target: T1, proton pump (H+/K+-ATPase) (Sus scrofa, UniProt P19156)
# T1 construct: Gastric vesicles were prepared from hog stomach via centrifugal separation; from tissue; host or cells: hog stomach (gastric vesicles, method of Rabon et al. 1988)
# Assay: Measurement of inhibitory effects on proton pump (H+/K+-ATPase) activities
# Format: biochemical
# Conditions: hog gastric vesicles, K+-specific H+/K+-ATPase activity, Tris-HCl buffer pH 7.4, 37° C. for 40 minutes, malachite green Pi readout
# Method: 1) Preparation of Gastric Vesicles
# Gastric vesicles were prepared from hog stomach via centrifugal separation (Edd C. Rabon et al., Preparation of Gastric H^+,K^+-ATPase, Methods in enzymology, vol. 157 Academic Press Inc., (1988), pp. 649-654). The protein contents of the thus prepared gastric vesicles were quantitated by Bicinchoninic Acid (BCA) kit.
# 2) Measurement of Inhibitory Effects on Proton Pump (H^+/K^+-ATPase) Activities
# The inhibitory effects of the compounds of the present invention against proton pump activities were measured using a 96-well plate. In this assay, the K^+-specific H^+/K^+-ATPase activities were calculated based on the difference between the H^+/K^+-ATPase activity in the presence of K^+ and that in the absence of K. In the 96-well plate, 0.5% dimethyl sulfoxide (DMSO) in buffer was added to the negative and positive control groups, and the diluted compounds of the present invention were added to the test groups. All assays were performed in a reaction volume of 100 μl at room temperature. The reaction buffer solution (60 mmol/l Tris-HCl buffer, pH 7.4) including the hog gastric vesicles was added with DMSO and the compounds at various concentrations, and then further added with 10 μl of 10 mmol/1 adenosine triphosphate Tris buffer solution (60 mmol/l Tris-HCl buffer, pH 7.4) to initiate an enzyme reaction. […] The amount of monophosphate (Pi) in the reaction was measured at 570 nm using a micro plate reader (FLUOstar Omega, BMG LABTECH). The inhibition rates (%) were determined from the activity values of control groups and those of test compounds at various concentrations, and the […] of the test compounds were calculated based on the respective inhibition value (%) using the Logistic 4-parameter function of Sigmaplot 8.0 program.
# T1 sequence (P19156 whole entry): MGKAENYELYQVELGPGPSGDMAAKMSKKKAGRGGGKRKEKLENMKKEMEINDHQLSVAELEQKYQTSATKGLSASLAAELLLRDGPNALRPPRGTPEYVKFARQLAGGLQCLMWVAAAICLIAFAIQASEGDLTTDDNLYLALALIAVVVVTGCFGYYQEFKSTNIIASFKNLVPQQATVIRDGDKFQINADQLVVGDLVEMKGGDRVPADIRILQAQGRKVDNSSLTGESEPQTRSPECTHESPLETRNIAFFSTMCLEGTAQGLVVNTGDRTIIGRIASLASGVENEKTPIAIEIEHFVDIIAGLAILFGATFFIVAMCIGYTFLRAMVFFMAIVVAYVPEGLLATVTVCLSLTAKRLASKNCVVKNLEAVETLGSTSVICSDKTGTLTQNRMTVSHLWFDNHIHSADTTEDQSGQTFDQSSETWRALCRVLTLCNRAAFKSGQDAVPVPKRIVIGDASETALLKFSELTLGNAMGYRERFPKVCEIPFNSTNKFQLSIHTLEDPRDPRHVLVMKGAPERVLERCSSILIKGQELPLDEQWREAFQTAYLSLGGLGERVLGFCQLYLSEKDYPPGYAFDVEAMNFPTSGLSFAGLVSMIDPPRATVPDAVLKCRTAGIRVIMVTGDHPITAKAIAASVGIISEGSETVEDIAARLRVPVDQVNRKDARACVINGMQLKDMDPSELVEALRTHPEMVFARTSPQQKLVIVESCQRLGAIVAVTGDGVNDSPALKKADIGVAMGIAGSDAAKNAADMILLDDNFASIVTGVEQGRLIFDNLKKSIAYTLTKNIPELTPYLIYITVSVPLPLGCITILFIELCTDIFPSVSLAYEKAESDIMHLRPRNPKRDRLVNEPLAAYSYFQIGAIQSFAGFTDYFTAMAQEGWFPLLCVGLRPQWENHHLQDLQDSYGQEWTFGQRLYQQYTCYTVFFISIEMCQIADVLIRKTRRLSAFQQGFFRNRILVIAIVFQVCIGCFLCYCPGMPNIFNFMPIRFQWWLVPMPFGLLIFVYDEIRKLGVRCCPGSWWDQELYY
# T1 sequence (P18434 whole entry partner): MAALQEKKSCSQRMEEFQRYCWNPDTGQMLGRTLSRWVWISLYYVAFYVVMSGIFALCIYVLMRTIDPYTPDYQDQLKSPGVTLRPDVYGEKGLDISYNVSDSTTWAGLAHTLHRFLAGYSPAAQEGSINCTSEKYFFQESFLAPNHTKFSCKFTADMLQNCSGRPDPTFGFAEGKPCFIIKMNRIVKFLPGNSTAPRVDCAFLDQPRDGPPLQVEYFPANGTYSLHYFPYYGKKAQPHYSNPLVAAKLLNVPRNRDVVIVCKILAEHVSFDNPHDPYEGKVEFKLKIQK
row,Structure (SMILES),IC50 [nM]
1,"CNCc1cn(S(=O)(=O)c2cccnc2)c2cc(Nc3ccccc3)ccc12 [Example 2, 3-((methylamino)methyl)-N-phenyl-1-(pyridin-3-ylsulfonyl)-1H-indol-6-amine hydrochloride]",1150
2,"CNCc1cn(S(=O)(=O)c2cccnc2)c2cc(Nc3ccccc3F)ccc12 [Example 3, N-(2-fluorophenyl)-3-((methylamino)methyl)-1-(pyridin-3-ylsulfonyl)-1H-indol-6-amine hydrochloride]",250
3,"CNCc1cn(S(=O)(=O)c2cccnc2)c2cc(Nc3ccccc3Cl)ccc12 [Example 4, N-(2-chlorophenyl)-3-((methylamino)methyl)-1-(pyridin-3-ylsulfonyl)-1H-indol-6-amine hydrochloride]",60
4,"CNCc1cn(S(=O)(=O)c2cccnc2)c2cc(Nc3cccc(Br)c3)ccc12 [Example 5, N-(3-bromophenyl)-3-((methylamino)methyl)-1-(pyridin-3-ylsulfonyl)-1H-indol-6-amine hydrochloride]",800
5,"CNCc1cn(S(=O)(=O)c2cccnc2)c2cc(Nc3cccc(F)c3)ccc12 [Example 6, N-(3-fluorophenyl)-3-((methylamino)methyl)-1-(pyridin-3-ylsulfonyl)-1H-indol-6-amine hydrochloride]",1180
6,"CNCc1cn(S(=O)(=O)c2cccnc2)c2cc(Nc3cccc(Cl)c3)ccc12 [Example 7, N-(3-chlorophenyl)-3-((methylamino)methyl)-1-(pyridin-3-ylsulfonyl)-1H-indol-6-amine hydrochloride]",590
7,"CCc1cccc(Nc2ccc3c(CNC)cn(S(=O)(=O)c4cccnc4)c3c2)c1 [Example 8, N-(3-ethylphenyl)-3-((methylamino)methyl)-1-(pyridin-3-ylsulfonyl)-1H-indol-6-amine hydrochloride]",170
8,"CNCc1cn(S(=O)(=O)c2cccnc2)c2cc(Nc3ccc(F)cc3)ccc12 [Example 9, N-(4-fluorophenyl)-3-((methylamino)methyl)-1-(pyridin-3-ylsulfonyl)-1H-indol-6-amine hydrochloride]",1050
9,"CNCc1cn(S(=O)(=O)c2cccnc2)c2cc(Nc3ccc(C)cc3)ccc12 [Example 10, 3-((methylamino)methyl)-1-(pyridin-3-ylsulfonyl)-N-(p-tolyl)-1H-indol-6-amine hydrochloride]",200
10,"CNCc1cn(S(=O)(=O)c2cccnc2)c2cc(Nc3ccc(Cl)cc3)ccc12 [Example 11, N-(4-chlorophenyl)-3-((methylamino)methyl)-1-(pyridin-3-ylsulfonyl)-1H-indol-6-amine hydrochloride]",1020
11,"CNCc1cn(S(=O)(=O)c2cccnc2)c2cc(Nc3ccc(OC)cc3)ccc12 [Example 12, N-(4-methoxyphenyl)-3-((methylamino)methyl)-1-(pyridin-3-ylsulfonyl)-1H-indol-6-amine hydrochloride]",420
12,"CNCc1cn(S(=O)(=O)c2cccnc2)c2cc(Nc3ccc(C(F)(F)F)cc3)ccc12 [Example 13, 3-((methylamino)methyl)-1-(pyridin-3-ylsulfonyl)-N-(4-(trifluoromethyl)phenyl)-1H-indol-6-amine hydrochloride]",1080
13,"CNCc1cn(S(=O)(=O)c2cccnc2)c2cc(Nc3ccc(C(C)(C)C)cc3)ccc12 [Example 14, N-(4-(tert-butyl)phenyl)-3-((methylamino)methyl)-1-(pyridin-3-ylsulfonyl)-1H-indol-6-amine hydrochloride]",1500
14,"CNCc1cn(S(=O)(=O)c2cccnc2)c2cc(Nc3ccc(-c4cccc(OC)c4)cc3)ccc12 [Example 15, N-(3′-methoxy-[1,1′-biphenyl]-4-yl)-3-((methylamino)methyl)-1-(pyridin-3-ylsulfonyl)-1H-indol-6-amine hydrochloride]",1850
15,"CNCc1cn(S(=O)(=O)c2cccnc2)c2cc(Nc3cc(-c4ccccc4)ccc3C)ccc12 [Example 16, N-(4-methyl-[1,1′-biphenyl]-3-yl)-3-((methylamino)methyl)-1-(pyridin-3-ylsulfonyl)-1H-indol-6-amine hydrochloride]",780
16,"CNCc1cn(S(=O)(=O)c2cccnc2)c2cc(Nc3ccc(Oc4ccccc4)cc3)ccc12 [Example 17, 3-((methylamino)methyl)-N-(4-phenoxyphenyl)-1-(pyridin-3-ylsulfonyl)-1H-indol-6-amine hydrochloride]",2250
17,"CNCc1cn(S(=O)(=O)c2cccnc2)c2cc(Nc3ccc(Oc4ccc(F)cc4)cc3)ccc12 [Example 18, N-(4-(4-fluorophenoxy)phenyl)-3-((methylamino)methyl)-1-(pyridin-3-ylsulfonyl)-1H-indol-6-amine hydrochloride]",1300
18,"CNCc1cn(S(=O)(=O)c2cccnc2)c2cc(Nc3ccc(Oc4ccc(Cl)cc4)cc3)ccc12 [Example 19, N-(4-(4-chlorophenoxy)phenyl)-3-((methylamino)methyl)-1-(pyridin-3-ylsulfonyl)-1H-indol-6-amine hydrochloride]",1910
19,"CNCc1cn(S(=O)(=O)c2cccnc2)c2cc(Nc3cccc(C)c3F)ccc12 [Example 20, N-(2-fluoro-3-methylphenyl)-3-((methylamino)methyl)-1-(pyridin-3-ylsulfonyl)-1H-indol-6-amine hydrochloride]",380
20,"CNCc1cn(S(=O)(=O)c2cccnc2)c2cc(Nc3ccc(C)cc3C)ccc12 [Example 21, N-(2,4-dimethylphenyl)-3-((methylamino)methyl)-1-(pyridin-3-ylsulfonyl)-1H-indol-6-amine hydrochloride]",210
21,"CNCc1cn(S(=O)(=O)c2cccnc2)c2cc(Nc3ccc(F)cc3C)ccc12 [Example 23, N-(4-fluoro-2-methylphenyl)-3-((methylamino)methyl)-1-(pyridin-3-ylsulfonyl)-1H-indol-6-amine hydrochloride]",220
22,"CNCc1cn(S(=O)(=O)c2cccnc2)c2cc(Nc3ccc(F)cc3F)ccc12 [Example 24, N-(2,4-difluorophenyl)-3-((methylamino)methyl)-1-(pyridin-3-ylsulfonyl)-1H-indol-6-amine hydrochloride]",560
23,"CNCc1cn(S(=O)(=O)c2cccnc2)c2cc(Nc3ccc(F)cc3Cl)ccc12 [Example 25, N-(2-chloro-4-fluorophenyl)-3-((methylamino)methyl)-1-(pyridin-3-ylsulfonyl)-1H-indol-6-amine hydrochloride]",160
24,"CNCc1cn(S(=O)(=O)c2cccnc2)c2cc(Nc3ccc(F)cc3C(F)(F)F)ccc12 [Example 26, N-(4-fluoro-2-(trifluoromethyl)phenyl)-3-((methylamino)methyl)-1-(pyridin-3-ylsulfonyl)-1H-indol-6-amine hydrochloride]",180
25,"CNCc1cn(S(=O)(=O)c2cccnc2)c2cc(Nc3ccc(Cl)cc3C)ccc12 [Example 27, N-(4-chloro-2-methylphenyl)-3-((methylamino)methyl)-1-(pyridin-3-ylsulfonyl)-1H-indol-6-amine hydrochloride]",420
26,"CNCc1cn(S(=O)(=O)c2cccnc2)c2cc(Nc3ccc(Cl)cc3C#N)ccc12 [Example 30, 5-chloro-2-((3-((methylamino)methyl)-1-(pyridin-3-ylsulfonyl)-1H-indol-6-yl)amino)benzonitrile hydrochloride]",1140
